Data: ChEMBL document CHEMBL4507291 (2021)

Columns and labels:
[1] = target: T1, Ephrin type-B receptor 1 (Homo sapiens) (UniProt P54762)
T1 sequence (whole entry): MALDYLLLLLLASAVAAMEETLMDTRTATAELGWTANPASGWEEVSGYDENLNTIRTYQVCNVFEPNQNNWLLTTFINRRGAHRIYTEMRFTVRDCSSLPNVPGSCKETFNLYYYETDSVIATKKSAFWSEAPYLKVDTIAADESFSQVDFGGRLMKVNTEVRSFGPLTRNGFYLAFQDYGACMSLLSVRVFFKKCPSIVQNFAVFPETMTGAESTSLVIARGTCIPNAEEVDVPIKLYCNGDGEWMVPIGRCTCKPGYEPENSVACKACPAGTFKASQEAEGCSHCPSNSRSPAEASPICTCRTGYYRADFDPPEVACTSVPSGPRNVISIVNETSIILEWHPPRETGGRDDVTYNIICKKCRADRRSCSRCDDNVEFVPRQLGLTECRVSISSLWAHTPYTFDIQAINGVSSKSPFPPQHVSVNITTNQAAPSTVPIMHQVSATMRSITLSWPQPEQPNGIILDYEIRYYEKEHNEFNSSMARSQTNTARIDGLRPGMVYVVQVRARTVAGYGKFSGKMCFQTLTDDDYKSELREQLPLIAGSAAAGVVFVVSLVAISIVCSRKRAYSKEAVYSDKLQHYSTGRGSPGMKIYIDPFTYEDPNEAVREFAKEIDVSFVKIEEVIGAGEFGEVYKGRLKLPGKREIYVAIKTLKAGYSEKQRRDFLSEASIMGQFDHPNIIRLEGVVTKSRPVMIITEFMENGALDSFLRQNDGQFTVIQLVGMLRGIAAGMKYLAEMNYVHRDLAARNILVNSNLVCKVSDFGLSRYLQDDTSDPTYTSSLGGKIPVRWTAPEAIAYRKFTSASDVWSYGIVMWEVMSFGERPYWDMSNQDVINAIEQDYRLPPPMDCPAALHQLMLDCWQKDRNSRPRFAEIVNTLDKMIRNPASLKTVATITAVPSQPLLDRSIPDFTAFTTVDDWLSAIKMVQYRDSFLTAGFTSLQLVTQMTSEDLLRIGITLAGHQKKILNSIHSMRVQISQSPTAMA

[2] = system: Tyrosine-protein kinase ABL1 (Homo sapiens), P00519 [Q252H]
[3] = target: Hepatocyte growth factor receptor (Homo sapiens) (UniProt P08581)
[4] = target: Cyclin-dependent kinase 16 (Homo sapiens) (UniProt Q00536)
[5] = target: ALK tyrosine kinase receptor (Homo sapiens) (UniProt Q9UM73)
[6] = target: Interleukin-1 receptor-associated kinase 4 (Homo sapiens) (UniProt Q9NWZ3)
[7] = target: Receptor-type tyrosine-protein kinase FLT3 (Homo sapiens) (UniProt P36888)
[8] = target: Phosphorylase b kinase regulatory subunit alpha, liver isoform (Homo sapiens) (UniProt P46019)
[9] = target: Phosphatidylinositol 3-kinase C2 domain-containing subunit gamma (Homo sapiens) (UniProt O75747)
[10] = target: 5-hydroxytryptamine receptor 2A (Homo sapiens) (UniProt P28223); conditions: Compound concentration 10.0 uM
[11] = target: T2, 5-hydroxytryptamine receptor 1A (Homo sapiens) (UniProt P08908); conditions: Compound concentration 10.0 uM
T2 sequence (whole entry): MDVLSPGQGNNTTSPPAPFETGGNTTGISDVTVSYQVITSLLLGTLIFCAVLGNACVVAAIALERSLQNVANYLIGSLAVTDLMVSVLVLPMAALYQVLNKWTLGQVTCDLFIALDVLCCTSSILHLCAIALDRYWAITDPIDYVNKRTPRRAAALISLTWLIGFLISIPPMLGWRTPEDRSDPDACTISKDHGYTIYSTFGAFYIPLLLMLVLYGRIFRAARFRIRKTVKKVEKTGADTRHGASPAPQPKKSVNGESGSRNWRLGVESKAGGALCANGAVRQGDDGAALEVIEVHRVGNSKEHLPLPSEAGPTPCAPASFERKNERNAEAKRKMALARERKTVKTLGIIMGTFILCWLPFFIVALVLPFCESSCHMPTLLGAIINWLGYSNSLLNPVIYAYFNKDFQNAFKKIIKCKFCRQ

[12] = target: Serine/threonine-protein kinase PAK 4 (Homo sapiens) (UniProt O96013)
[13] = target: T3, Serine/threonine-protein kinase TBK1 (Homo sapiens) (UniProt Q9UHD2)
T3 sequence (whole entry): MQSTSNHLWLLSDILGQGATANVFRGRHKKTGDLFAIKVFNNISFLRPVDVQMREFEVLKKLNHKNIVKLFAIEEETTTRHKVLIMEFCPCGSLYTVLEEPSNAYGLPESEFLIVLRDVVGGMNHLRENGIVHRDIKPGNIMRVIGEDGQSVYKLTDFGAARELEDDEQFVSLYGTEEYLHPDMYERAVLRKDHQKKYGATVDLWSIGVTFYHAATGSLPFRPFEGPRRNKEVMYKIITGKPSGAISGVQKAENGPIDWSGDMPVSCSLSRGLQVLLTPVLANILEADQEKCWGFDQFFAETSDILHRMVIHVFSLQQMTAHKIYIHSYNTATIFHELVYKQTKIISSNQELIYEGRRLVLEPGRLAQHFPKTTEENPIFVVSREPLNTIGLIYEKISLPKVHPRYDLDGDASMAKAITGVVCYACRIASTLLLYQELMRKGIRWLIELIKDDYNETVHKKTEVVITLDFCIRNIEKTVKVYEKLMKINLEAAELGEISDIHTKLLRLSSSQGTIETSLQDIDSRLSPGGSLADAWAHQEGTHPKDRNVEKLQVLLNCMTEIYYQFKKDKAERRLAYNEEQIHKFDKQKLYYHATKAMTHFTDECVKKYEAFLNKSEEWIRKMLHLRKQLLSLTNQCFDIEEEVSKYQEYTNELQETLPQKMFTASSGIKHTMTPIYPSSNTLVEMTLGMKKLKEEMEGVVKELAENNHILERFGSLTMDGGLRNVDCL

[14] = target: Cyclin-G-associated kinase (Homo sapiens) (UniProt O14976)
[15] = target: Myosin-IIIa (Homo sapiens) (UniProt Q8NEV4)
[16] = target: 5'-AMP-activated protein kinase catalytic subunit alpha-1 (Homo sapiens) (UniProt Q13131)
[17] = Compound concentration 100.0 nM
[18] = Compound concentration 1000.0 nM

Sequence of ALK tyrosine kinase receptor (Homo sapiens) (Q9UM73 19-1620 limits assumed): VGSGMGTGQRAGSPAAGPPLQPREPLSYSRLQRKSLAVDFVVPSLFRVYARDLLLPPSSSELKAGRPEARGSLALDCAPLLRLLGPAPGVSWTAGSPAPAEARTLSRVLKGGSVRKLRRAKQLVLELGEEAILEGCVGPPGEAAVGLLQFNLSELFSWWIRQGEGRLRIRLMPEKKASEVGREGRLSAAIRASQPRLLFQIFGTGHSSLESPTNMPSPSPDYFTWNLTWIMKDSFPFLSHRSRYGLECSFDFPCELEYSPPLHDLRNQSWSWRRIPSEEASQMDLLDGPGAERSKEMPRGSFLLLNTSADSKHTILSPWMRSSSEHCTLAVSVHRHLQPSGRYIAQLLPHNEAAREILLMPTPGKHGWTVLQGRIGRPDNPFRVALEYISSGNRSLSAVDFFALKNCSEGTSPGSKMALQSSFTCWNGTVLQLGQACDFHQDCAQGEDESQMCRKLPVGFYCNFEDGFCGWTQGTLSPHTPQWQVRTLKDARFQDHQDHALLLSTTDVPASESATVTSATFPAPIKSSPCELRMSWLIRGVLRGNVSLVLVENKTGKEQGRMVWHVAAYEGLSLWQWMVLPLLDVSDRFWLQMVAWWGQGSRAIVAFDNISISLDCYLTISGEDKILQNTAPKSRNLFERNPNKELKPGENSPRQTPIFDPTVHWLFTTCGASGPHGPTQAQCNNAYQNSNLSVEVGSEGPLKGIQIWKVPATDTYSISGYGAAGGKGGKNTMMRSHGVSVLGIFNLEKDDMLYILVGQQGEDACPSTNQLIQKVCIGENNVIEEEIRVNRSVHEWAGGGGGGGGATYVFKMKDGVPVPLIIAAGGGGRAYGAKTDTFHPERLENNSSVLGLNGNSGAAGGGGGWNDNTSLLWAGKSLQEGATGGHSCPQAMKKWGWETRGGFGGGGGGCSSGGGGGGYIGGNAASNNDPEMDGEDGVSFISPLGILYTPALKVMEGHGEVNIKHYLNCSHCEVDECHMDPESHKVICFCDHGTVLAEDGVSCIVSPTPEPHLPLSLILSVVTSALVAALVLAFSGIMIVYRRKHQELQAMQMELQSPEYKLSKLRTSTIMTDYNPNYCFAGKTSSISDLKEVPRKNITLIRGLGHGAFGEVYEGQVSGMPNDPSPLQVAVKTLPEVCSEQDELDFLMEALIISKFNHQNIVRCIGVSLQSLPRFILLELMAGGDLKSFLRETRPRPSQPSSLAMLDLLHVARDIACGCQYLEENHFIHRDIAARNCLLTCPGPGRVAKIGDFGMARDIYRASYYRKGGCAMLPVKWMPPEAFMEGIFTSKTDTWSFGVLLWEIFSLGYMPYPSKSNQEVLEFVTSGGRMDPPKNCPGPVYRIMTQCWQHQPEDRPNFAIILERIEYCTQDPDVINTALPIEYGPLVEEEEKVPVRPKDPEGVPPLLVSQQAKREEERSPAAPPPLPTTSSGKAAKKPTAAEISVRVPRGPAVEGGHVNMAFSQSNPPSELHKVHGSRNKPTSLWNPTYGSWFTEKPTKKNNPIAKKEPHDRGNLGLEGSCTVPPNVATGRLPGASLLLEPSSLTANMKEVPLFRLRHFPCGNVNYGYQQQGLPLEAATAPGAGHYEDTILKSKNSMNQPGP
Sequence of Hepatocyte growth factor receptor (Homo sapiens) (P08581 whole entry): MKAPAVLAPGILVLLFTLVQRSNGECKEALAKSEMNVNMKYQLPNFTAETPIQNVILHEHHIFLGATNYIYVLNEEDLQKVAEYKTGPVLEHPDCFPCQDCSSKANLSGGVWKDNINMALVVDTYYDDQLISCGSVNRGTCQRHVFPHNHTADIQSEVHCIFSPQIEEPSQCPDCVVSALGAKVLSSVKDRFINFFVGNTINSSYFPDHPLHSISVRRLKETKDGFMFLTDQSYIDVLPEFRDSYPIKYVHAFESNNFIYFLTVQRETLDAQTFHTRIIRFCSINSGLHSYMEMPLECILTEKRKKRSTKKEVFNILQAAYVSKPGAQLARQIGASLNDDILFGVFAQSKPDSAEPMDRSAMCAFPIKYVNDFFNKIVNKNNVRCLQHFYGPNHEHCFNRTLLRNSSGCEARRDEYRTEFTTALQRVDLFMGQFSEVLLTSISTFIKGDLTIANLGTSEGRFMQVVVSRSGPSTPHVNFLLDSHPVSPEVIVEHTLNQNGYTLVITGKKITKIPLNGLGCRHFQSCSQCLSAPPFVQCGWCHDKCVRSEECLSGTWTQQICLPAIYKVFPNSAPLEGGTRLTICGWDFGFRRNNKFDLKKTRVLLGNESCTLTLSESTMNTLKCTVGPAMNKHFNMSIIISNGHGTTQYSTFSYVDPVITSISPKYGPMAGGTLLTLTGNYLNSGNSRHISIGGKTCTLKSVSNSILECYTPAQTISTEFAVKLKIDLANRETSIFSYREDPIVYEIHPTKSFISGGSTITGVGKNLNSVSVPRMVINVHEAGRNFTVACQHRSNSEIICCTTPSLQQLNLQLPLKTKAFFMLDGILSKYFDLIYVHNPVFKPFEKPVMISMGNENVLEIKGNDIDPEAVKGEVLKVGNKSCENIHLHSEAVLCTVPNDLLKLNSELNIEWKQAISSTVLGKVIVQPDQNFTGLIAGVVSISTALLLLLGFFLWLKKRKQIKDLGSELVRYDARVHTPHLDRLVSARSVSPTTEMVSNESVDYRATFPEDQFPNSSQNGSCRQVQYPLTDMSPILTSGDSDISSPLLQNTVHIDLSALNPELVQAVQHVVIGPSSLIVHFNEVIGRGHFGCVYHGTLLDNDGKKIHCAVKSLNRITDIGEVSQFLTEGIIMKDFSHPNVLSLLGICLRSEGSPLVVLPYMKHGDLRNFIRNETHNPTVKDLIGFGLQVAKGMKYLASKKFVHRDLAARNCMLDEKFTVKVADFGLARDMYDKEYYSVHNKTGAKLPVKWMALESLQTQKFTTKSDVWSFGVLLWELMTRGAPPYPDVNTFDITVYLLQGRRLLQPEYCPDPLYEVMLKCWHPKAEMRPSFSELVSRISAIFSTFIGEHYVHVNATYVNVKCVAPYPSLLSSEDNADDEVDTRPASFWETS
Sequence of Phosphatidylinositol 3-kinase C2 domain-containing subunit gamma (Homo sapiens) (O75747 whole entry, the tested form may be a part): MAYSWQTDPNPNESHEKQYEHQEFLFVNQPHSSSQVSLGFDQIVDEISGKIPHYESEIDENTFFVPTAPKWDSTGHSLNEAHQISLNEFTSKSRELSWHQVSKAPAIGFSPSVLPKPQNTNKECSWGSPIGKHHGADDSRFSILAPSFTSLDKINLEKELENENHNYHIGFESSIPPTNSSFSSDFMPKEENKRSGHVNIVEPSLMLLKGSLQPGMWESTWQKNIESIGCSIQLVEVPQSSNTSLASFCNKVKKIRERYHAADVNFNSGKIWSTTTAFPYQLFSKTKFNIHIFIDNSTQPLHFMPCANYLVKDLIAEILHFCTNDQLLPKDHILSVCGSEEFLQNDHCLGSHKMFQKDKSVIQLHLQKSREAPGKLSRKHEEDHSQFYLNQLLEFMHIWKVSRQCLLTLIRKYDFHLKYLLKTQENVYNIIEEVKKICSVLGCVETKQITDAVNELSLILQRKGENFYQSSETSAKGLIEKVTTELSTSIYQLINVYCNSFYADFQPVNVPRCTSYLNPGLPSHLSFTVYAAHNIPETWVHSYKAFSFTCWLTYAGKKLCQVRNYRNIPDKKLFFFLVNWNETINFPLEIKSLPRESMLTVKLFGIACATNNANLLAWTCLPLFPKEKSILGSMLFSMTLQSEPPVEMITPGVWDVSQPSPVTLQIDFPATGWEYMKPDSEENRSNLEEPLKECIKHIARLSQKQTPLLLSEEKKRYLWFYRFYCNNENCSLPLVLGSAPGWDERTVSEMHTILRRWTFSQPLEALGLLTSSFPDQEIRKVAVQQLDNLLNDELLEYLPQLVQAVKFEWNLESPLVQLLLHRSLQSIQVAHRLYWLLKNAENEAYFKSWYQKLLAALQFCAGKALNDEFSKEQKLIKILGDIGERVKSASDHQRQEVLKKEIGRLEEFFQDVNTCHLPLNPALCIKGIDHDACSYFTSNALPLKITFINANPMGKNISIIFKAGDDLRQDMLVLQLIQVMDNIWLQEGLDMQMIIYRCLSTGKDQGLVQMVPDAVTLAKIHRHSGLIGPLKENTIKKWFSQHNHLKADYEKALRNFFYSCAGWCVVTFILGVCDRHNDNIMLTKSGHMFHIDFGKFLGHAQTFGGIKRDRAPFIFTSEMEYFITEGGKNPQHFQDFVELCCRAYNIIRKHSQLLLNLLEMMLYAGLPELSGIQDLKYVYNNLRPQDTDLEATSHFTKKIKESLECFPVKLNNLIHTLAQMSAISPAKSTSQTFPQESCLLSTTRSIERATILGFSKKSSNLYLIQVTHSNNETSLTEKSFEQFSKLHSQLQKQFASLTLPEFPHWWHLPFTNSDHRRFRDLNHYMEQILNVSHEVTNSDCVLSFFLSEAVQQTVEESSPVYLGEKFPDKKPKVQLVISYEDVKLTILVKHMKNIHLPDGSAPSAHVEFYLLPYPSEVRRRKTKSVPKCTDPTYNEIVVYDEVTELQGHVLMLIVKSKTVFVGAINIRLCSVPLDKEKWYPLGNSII
Sequence of Cyclin-dependent kinase 16 (Homo sapiens) (Q00536 whole entry): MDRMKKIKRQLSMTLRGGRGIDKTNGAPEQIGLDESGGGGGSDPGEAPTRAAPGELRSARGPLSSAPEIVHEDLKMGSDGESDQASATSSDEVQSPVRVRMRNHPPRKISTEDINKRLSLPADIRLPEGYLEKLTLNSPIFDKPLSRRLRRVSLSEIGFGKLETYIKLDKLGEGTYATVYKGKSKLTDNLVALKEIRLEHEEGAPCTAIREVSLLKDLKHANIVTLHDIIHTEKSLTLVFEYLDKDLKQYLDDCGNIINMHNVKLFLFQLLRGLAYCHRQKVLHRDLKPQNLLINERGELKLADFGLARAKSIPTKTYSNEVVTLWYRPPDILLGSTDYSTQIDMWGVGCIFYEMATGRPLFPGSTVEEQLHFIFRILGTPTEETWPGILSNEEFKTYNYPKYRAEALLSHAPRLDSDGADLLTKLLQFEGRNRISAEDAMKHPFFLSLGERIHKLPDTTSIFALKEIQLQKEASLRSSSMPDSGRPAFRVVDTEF

C[C@@H]1CN(c2cc(-c3n[nH]c4ccc(OC5(C)CC5)cc34)ncn2)C[C@H](C)O1 [MLi-2]
inactive: residual activity [1, 17] 83% | residual activity [2, 17] 100% | residual activity [3, 17] 100% | residual activity [4, 17] 85% | residual activity [5, 17] 65% | residual activity [6, 17] 90% | residual activity [7, 17] 99% | residual activity [8, 17] 91% | residual activity [9, 17] 69% | inhibition [10] 2.75% | inhibition [11] 4.44% | residual activity [12, 17] 97% | residual activity [13, 17] 68% | residual activity [14, 17] 86% | residual activity [15, 17] 100% | residual activity [16, 17] 86%

C[C@@H]1CN(c2cc(-c3nn(C)c4ccc(OC5(C)CC5)cc34)ncn2)C[C@H](C)O1 [MLi-2-NC]
inactive: residual activity [1, 18] 99% | residual activity [2, 18] 93% | residual activity [3, 18] 100% | residual activity [4, 18] 87% | residual activity [5, 18] 64% | residual activity [6, 18] 76% | residual activity [7, 18] 96% | residual activity [8, 18] 100% | residual activity [9, 18] 100% | inhibition [10] 3.31% | inhibition [11] 18.1% | residual activity [12, 18] 93% | residual activity [13, 18] 75% | residual activity [14, 18] 86% | residual activity [15, 18] 100% | residual activity [16, 18] 93%
